Measurements reported in patent publication US20160052926A1, “NOVEL PYRIMIDINE AND PYRIDINE COMPOUNDS AND USAGE THEREOF” (HUTCHISON MEDIPHARMA LIMITED, priority 2013, published 2016).

Tests used:
RT-112 = assay: Cellular Proliferation Assay (Cell Counting Kit-8), RT-112; type: cell-based; conditions: Homo sapiens, RT-112 cells, 72 hours
How it was run: (§1)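 Proliferation was read as OD at 450 nm after 1 h with CCK-8, following 72 h drug exposure at 37 °C, 5% CO2. Inhibition was calculated against cells in 0.5% DMSO minus medium blank, and the 50% point reported. The compound series (10–0.004 μM, pre-addition, in 5% DMSO) was added one day after plating KG-1, SNU-16 and RT-112 at 30,000, 5,000 and 1,000 cells/well respectively.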

Recombinant human FGFR2 = Recombinant human FGFR2 (Homo sapiens, UniProt P21802); assay: Transcreener Kinase Assay of FGFR2; type: biochemical; conditions: read-out: FGFR2 (FP) IC50
FGFR3 kinase = FGFR3 kinase (Homo sapiens, UniProt P22607); assay: Z-Lyte Kinase Assay of FGFR3; type: biochemical
How it was run: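 FRET peptide-cleavage format: 1 h kinase reaction at RT (25-30[…]), then 1 h protease development, then stop and dual-emission read (Ex400, Em445/520 nm). Working solutions: kinase 0.7 μg/ml, Tyr 4 peptide 4 μM, ATP 300 uM in 1.33× buffer; eight compound concentrations from 1 μM, 2% DMSO final.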

Recombinant human FGFR1 = Recombinant human FGFR1 (Homo sapiens, UniProt P11362); assay: Transcreener Kinase Assay of FGFR1; type: biochemical; conditions: read-out: FGFR1 (FP) IC50
KG-1 = assay: Cellular Proliferation Assay (Cell Counting Kit-8), KG-1; type: cell-based; conditions: Homo sapiens, KG1 cells, 72 hours
How it was run: as §1

SNU-16 = assay: Cellular Proliferation Assay (Cell Counting Kit-8), SNU-16; type: cell-based; conditions: Homo sapiens, SNU-16 cells, 72 hours
How it was run: as §1

FGFR3 kinase, sequence (P22607 23-806): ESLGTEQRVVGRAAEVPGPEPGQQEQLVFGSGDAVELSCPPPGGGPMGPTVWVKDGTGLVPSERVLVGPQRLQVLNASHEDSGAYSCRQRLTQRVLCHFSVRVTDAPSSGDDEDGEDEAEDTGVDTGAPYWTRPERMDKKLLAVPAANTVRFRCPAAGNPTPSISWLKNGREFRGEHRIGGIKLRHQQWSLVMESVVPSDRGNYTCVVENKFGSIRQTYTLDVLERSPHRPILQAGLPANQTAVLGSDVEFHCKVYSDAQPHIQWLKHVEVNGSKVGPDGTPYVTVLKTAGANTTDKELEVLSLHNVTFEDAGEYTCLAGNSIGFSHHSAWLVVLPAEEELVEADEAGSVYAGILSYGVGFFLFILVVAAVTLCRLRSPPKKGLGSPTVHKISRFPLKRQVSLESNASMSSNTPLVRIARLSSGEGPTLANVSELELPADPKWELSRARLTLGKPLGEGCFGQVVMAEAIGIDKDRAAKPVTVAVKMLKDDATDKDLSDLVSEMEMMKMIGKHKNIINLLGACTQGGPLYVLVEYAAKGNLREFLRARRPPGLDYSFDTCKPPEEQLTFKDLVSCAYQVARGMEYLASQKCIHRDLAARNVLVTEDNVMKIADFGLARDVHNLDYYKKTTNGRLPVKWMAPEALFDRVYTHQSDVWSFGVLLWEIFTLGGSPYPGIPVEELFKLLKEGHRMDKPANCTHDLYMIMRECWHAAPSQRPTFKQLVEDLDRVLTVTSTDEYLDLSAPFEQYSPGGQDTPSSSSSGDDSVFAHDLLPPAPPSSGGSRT
Recombinant human FGFR2, sequence (P21802 22-821): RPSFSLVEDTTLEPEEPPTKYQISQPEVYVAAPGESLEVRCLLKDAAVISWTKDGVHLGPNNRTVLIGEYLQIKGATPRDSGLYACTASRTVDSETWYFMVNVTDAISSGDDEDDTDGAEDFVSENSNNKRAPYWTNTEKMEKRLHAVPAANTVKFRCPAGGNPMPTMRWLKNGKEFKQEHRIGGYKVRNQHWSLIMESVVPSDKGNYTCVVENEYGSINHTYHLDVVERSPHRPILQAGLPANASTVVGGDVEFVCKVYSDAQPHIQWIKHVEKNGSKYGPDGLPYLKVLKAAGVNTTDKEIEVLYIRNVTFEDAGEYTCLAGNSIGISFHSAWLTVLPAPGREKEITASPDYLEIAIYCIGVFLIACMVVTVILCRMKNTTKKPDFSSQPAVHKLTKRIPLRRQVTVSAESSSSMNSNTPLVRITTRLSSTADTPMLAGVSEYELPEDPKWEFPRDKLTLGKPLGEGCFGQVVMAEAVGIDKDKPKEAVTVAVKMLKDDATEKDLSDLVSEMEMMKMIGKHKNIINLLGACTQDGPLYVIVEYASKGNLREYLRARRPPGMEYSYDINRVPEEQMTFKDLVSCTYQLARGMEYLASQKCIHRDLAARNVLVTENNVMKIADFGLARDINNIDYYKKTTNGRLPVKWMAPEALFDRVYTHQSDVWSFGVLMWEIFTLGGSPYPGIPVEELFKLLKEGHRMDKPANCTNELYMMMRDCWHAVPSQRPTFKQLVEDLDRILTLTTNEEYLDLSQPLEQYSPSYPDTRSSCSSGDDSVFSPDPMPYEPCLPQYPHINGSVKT
Recombinant human FGFR1, sequence (P11362 22-822): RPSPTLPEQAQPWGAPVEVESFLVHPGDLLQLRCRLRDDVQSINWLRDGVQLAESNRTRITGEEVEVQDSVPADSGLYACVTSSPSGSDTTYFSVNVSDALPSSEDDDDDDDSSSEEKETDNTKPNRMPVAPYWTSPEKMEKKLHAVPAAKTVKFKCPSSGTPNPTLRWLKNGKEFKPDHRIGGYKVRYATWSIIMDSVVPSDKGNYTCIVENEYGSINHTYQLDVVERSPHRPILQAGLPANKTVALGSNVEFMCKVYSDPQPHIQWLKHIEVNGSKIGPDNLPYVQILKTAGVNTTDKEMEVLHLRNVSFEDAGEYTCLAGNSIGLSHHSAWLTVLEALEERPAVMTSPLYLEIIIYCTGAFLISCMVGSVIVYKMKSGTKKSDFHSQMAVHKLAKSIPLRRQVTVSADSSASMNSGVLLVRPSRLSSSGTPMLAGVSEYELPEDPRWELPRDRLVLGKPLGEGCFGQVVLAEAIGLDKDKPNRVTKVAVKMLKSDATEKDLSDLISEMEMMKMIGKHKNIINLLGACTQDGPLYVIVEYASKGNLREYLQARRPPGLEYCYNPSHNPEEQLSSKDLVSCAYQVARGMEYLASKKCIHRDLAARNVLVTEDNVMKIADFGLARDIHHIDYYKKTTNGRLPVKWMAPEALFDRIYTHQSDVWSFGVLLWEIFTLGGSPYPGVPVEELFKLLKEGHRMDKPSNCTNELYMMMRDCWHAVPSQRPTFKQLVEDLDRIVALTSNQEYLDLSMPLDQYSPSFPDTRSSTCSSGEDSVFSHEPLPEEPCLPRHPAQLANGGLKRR

Row | SMILES | IC50 (Recombinant human FGFR2) [µM] | IC50 (FGFR3 kinase) [µM] | IC50 (Recombinant human FGFR1) [µM] | IC50 (SNU-16) [µM] | IC50 (RT-112) [µM] | IC50 (KG-1) [µM]
1 | CCn1ncc(Nc2ncc(CCc3cc(C(=O)NC)cc(OC)c3F)cn2)c1C [Compound 110] | 0.014 | 0.024 | 0.068 | 0.046 | 0.197 | 0.095
2 | CCN(CC)CCCn1cc(Nc2ncc(CCc3cc(C(=O)NC)cc(OC)c3Cl)cn2)cn1 [Compound 88] | 0.006 | 0.009 | 0.015 | 0.013 | 0.027 | 0.214
3 | CNC(=O)c1cc(CCc2cnc(Nc3cnn(C4CC4)c3)nc2)c(Cl)c(OC)c1 [Compound 119] | 0.006 | 0.019 | 0.011 | 0.027 | 0.124 | 0.022
4 | CCn1cc(Nc2ncc(CCc3cc(C(=O)NC)cc(OC)c3F)cn2)c(C)n1 [Compound 111] | 0.033 | 0.061 | 0.107 | 0.127 | 0.57 | 0.162
5 | CNC(=O)c1cc(COc2cnc(Nc3cnn(C)c3)nc2)c(F)c(OC)c1 [Compound 182] | 0.009 | 0.01 | 0.027 | 0.019 | 0.033 | 0.008
6 | CNC(=O)c1cc(CCc2cnc(Nc3cnn(C4CCCC4)c3)nc2)c(F)c(OC)c1 [Compound 122] | 0.006 | 0.009 | 0.014 | 0.013 | 0.067 | 0.02
7 | CCn1cc(Nc2ncc(OCc3cc(C(=O)NC)cc(OC)c3F)cn2)cn1 [Compound 181, 3-(((2-((1-ethyl-1H-pyrazol-4-yl)amino)pyrimidin-5-yl)oxy)methyl)-4-fluoro-5-methoxy-N-methylbenzamide] | 0.005 | 0.009 | 0.019 | 0.008 | 0.035 | 0.026
8 | CNC(=O)c1cc(CCc2cnc(Nc3cnn(C4CC4)c3)nc2)c(F)c(OC)c1 [Compound 107] | 0.007 | 0.014 | 0.01 | 0.026 | 0.09 | 0.028
9 | CNC(=O)c1cc(CCc2cnc(Nc3ccnc(OC)c3)nc2)c(F)c(OC)c1 [Compound 62] | 0.009 | 0.033 | 0.02 | 0.049 | 0.152 | 0.046
10 | CNC(=O)c1cc(CCc2cnc(Nc3cnn([C@H]4CCCN(C)C4)c3)nc2)c(F)c(OC)c1 [Compound 172] | 0.006 | 0.006 | 0.009 | 0.014 | 0.064 | 0.022
11 | CNC(=O)c1cc(CCc2cnc(Nc3cnn(C4CCOCC4)c3)nc2)c(F)c(OC)c1 [Compound 132] | 0.006 | 0.006 | 0.012 | 0.01 | 0.059 | 0.02
12 | CNC(=O)c1cc(CCc2cnc(Nc3ccc4c(C)n(C)nc4c3)nc2)c(F)c(OC)c1 [Compound 130] | 0.005 | 0.01 | 0.008 | 0.032 | 0.048 | 0.028
13 | CNC(=O)c1cc(CCc2cnc(Nc3cnn([C@@H]4CCCN(C)C4)c3)nc2)c(F)c(OC)c1 [Compound 165, (R)-4-fluoro-3-methoxy-N-methyl-5-(2-(2-(1-(1-methylpiperidin-3-yl)-1H-pyrazol-4-ylamino)pyrimidin-5-yl)ethyl)benzamide] | 0.007 | 0.007 | 0.011 | 0.023 | 0.106 | 0.056
14 | CNC(=O)c1cc(CCc2cnc(Nc3cnn(C(F)F)c3)nc2)c(Cl)c(OC)c1 [Compound 149] | 0.008 | 0.033 | 0.015 | 0.017 | 0.021 | 0.067
15 | CNC(=O)c1cc(COc2cnc(Nc3ccc(N4C[C@@H](C)N[C@@H](C)C4)c(C)c3)nc2)c(F)c(OC)c1 [Compound 194] | 0.014 | 0.02 | 0.014 | 0.031 | 0.027 | 0.06

Continued, in another order:

Row | IC50 (Recombinant human FGFR2) [µM] | IC50 (FGFR3 kinase) [µM] | IC50 (Recombinant human FGFR1) [µM] | IC50 (SNU-16) [µM] | SMILES | IC50 (RT-112) [µM] | IC50 (KG-1) [µM]
16 | 0.01 | 0.036 | 0.01 | 0.05 | CCN1CCN(c2ccc(Nc3ncc(/C=C/c4cc(C(=O)NC)cc(OC)c4F)cn3)cc2)CC1 [Compound 87] | 0.084 | 0.025
17 | 0.005 | 0.013 | 0.012 | 0.024 | CCn1cc(Nc2ncc(CCc3cc(C(=O)NC)cc(OC)c3F)cn2)cn1 [Compound 100, 3-(2-(2-(1-ethyl-1H-pyrazol-4-ylamino)pyrimidin-5-yl)ethyl)-4-fluoro-5-methoxy-N-methylbenzamide] | 0.094 | 0.021
18 | 0.012 | 0.038 | 0.019 | 0.029 | CNC(=O)c1cc(CCc2cnc(Nc3cnn(-c4ccc(C)nc4)c3)nc2)c(Cl)c(OC)c1 [Compound 152] | 0.088 | 0.056
19 | 0.004 | 0.009 | 0.005 | 0.015 | CCN1CCN(c2ccc(Nc3ncc(CCc4cc(C(=O)NC)cc(OC)c4F)cn3)cc2)CC1 [Compound 44] | 0.051 | 0.009
20 | 0.006 | 0.011 | 0.014 | 0.019 | CCn1cc(Nc2ncc(CCc3cc(C(=O)NC)cc(OC)c3Cl)cn2)cn1 [Compound 115] | 0.053 | 0.012
21 | 0.025 | 0.028 | 0.036 | 0.037 | CCNC(=O)c1cc(COc2cnc(Nc3ccc(N4C[C@@H](C)N[C@@H](C)C4)cc3)nc2)c(F)c(OC)c1 [Compound 205] | 0.097 | 0.068
22 | 0.015 | 0.026 | 0.032 | 0.024 | CNC(=O)c1cc(CCc2cnc(Nc3ccc(CN4CCOCC4)nc3)nc2)c(F)c(OC)c1 [Compound 98] | 0.225 | 0.048
23 | 0.016 | 0.017 | 0.02 | 0.019 | CNC(=O)c1cc(OC)c(Cl)c(CCc2cnc(Nc3ccc(N4C[C@@H](C)N[C@@H](C)C4)cc3)nc2)c1F [Compound 91] | 0.064 | 0.032
24 | 0.004 | 0.008 | 0.005 | 0.019 | CCN1CCN(c2ccc(Nc3ncc(CCc4cc(C(=O)NC)cc(OC)c4F)cn3)cc2)C[C@H]1C [Compound 53] | 0.049 | 0.014
25 | 0.007 | 0.008 | 0.009 | 0.032 | CNC(=O)c1cc(CCc2cnc(Nc3cnn(CCCN4CCCC4)c3)nc2)c(F)c(OC)c1 [Compound 138] | 0.202 | 0.617
26 | 0.015 | 0.029 | 0.014 | 0.132 | CCONC(=O)c1cc(CCc2cnc(Nc3ccc(N4CCN(CC)CC4)cc3)nc2)cc(OC)c1 [Compound 50] | 0.352 | 0.045
27 | 0.015 | 0.018 | 0.014 | 0.027 | CCN1CCC(n2cc(Nc3ncc(CCc4cc(C(=O)NC)cc(OC)c4Cl)cn3)cn2)CC1 [Compound 178] | 0.186 | 0.072
28 | 0.007 | 0.012 | 0.014 | 0.017 | CNC(=O)c1cc(CCc2cnc(Nc3ccc(CN4CCN(C)CC4)cc3)nc2)c(F)c(OC)c1 [Compound 99] | 0.11 | 0.03
29 | 0.012 | 0.027 | 0.02 | 0.029 | CNC(=O)c1cc(CCc2cnc(Nc3ccc(C)nc3)nc2)c(F)c(OC)c1 [Compound 26] | 0.093 | 0.048
30 | 0.004 | 0.004 | 0.01 | 0.018 | CCN1CCC(Cn2cc(Nc3ncc(CCc4cc(C(=O)NC)cc(OC)c4Cl)cn3)cn2)CC1 [Compound 155] | 0.012 | 0.461
31 | 0.01 | 0.015 | 0.018 | 0.048 | CCN1CC(n2cc(Nc3ncc(CCc4cc(C(=O)NC)cc(OC)c4F)cn3)cn2)C1 [Compound 167] | 0.382 | 0.062
32 | 0.01 | 0.04 | 0.029 | 0.068 | CNC(=O)c1cc(CCc2cnc(Nc3ccc(OC)nc3)nc2)c(F)c(OC)c1 [Compound 30] | 0.241 | 0.055
33 | 0.006 | 0.005 | 0.01 | 0.017 | CCN1CCC[C@@H](n2cc(Nc3ncc(CCc4cc(C(=O)NC)cc(OC)c4F)cn3)cn2)C1 [Compound 174] | 0.065 | 0.04
34 | 0.008 | 0.008 | 0.012 | 0.029 | CNC(=O)c1cc(CCc2cnc(Nc3cnn(CCN4CCN(C)CC4)c3)nc2)c(Cl)c(OC)c1 [Compound 89] | 0.046 | 0.13
